Key:
[1] = test system: pigweed; assay: Test A postemergence; format: in vivo, Amaranthus retroflexus; conditions: Amaranthus retroflexus, post-emergence, 0 to 100 scale where 0 is no effect and 100 is complete control
Method in brief: (§1)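 Visual 0–100 rating (100 = complete control) taken about 10 d post-treatment relative to untreated checks. Preemergence: directed soil spray on sown loam/sand pots. Postemergence: seedlings 2–10 cm, 1–2 leaf. Non-phytotoxic solvent formulation with surfactant.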

[2] = test system: barnyardgrass; assay: Test C preemergence; format: in vivo, Echinochloa crus-galli; conditions: Echinochloa crus-galli, pre-emergence
Method in brief: (§2)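 Plants were kept under greenhouse conditions for 13–15 days following spray. Pre-emergent application went to soil (loam–sand), post-emergent to foliage at 1–4 leaves. Evaluation: visual, percent control against untreated checks.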

[3] = test system: wheat; assay: Test A postemergence; format: in vivo, Triticum aestivum; conditions: Triticum aestivum, post-emergence, 240 h, 0 to 100 scale where 0 is no effect and 100 is complete control
Method in brief: as §1

[4] = test system: wheat, winter; assay: Test C preemergence; format: in vivo, Triticum aestivum; conditions: Triticum aestivum, pre-emergence
Method in brief: as §2

[5] = test system: pigweed; assay: Test C postemergence; format: in vivo, Amaranthus retroflexus
Method in brief: as §2

[6] = test system: giant foxtail; assay: Test A preemergence; format: in vivo, Setaria faberii
Method in brief: as §1

[7] = test system: Italian ryegrass; assay: Test C postemergence; format: in vivo, Lolium multiflorum
Method in brief: as §2

[8] = test system: morningglory; assay: Test A preemergence; format: in vivo, Ipomoea spp.
Method in brief: as §1

[9] = test system: lambsquarters; assay: Test C preemergence; format: in vivo, Chenopodium album; conditions: Chenopodium album, pre-emergence
Method in brief: as §2

[10] = test system: barnyardgrass; assay: Test B flooded paddy test; format: in vivo, Echinochloa crus-galli; conditions: Echinochloa crus-galli; Flood, 250 g ai/ha; 0 to 100 scale where 0 is no effect and 100 is complete control; read-out: Plant response rating, Barnyardgrass
Method in brief: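 Evaluation is visual, against untreated controls, 13 to 15 days after treatment. Before treatment, plants reached the 2-leaf stage; pots were then flooded 3 cm deep, compound was added to the water, and that level was maintained. Ratings run 0 to 100, with 100 meaning complete control.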

[11] = test system: velvetleaf; assay: Test A postemergence; format: in vivo, Abutilon theophrasti; conditions: 0 to 100 scale where 0 is no effect and 100 is complete control
Method in brief: as §1

[12] = test system: velvetleaf; assay: Test A preemergence; format: in vivo, Abutilon theophrasti
Method in brief: as §1

[13] = test system: corn; assay: Test A preemergence; format: in vivo, Zea mays
Method in brief: as §1

[14] = test system: kochia; assay: Test C postemergence; format: in vivo, Kochia scoparia; conditions: Bassia scoparia, post-emergence
Method in brief: as §2

[15] = test system: large (Lg) crabgrass; assay: Test A postemergence; format: in vivo, Digitaria sanguinalis; conditions: 0 to 100 scale where 0 is no effect and 100 is complete control
Method in brief: as §1

[16] = test system: morningglory; assay: Test C postemergence; format: in vivo, Ipomoea coccinea
Method in brief: as §2

[17] = 31 g ai/ha, postemergence, visual rating, scale 0 to 100 (0 no effect, 100 complete control), 13 to 15 days

FC(F)c1cccc(Oc2ncc(Cl)cn2)c1-n1cc(Br)cn1 [Compound 194, 2-[2-(4-bromo-1H-pyrazol-1-yl)-3-(difluoromethyl)phenoxy]-5-chloropyrimidine]
pest or weed control at 500 g/ha ([1]; 500 g ai/ha, read-out: Plant response rating, Pigweed): 100%
pest or weed control at 125 g/ha ([1]; 240 h, 125 g ai/ha, read-out: Pigweed plant response rating): 100%
pest or weed control at 125 g/ha ([2]; 125 g ai/ha, preemergence, scale 0 (no effect) to 100 (complete control), read-out: Barnyardgrass plant response rating): 100%
pest or weed control at 250 g/ha ([2]; 250 g ai/ha, preemergence, scale 0 (no effect) to 100 (complete control), read-out: Barnyardgrass plant response rating): 100%
pest or weed control at 62 g/ha ([2]; Preemergence, 62 g ai/ha, scale 0 to 100, 0 no effect, 100 complete control, read-out: Plant response rating, Barnyardgrass): 85%
plant injury at 125 g/ha ([3]; 125 g ai/ha, read-out: Wheat plant response rating): 30%
plant injury at 500 g/ha ([3]; 500 g ai/ha, read-out: Plant response rating, Wheat): 60%
plant injury at 125 g/ha ([4]; 125 g ai/ha, preemergence, scale 0 (no effect) to 100 (complete control), read-out: Wheat plant response rating): 0%
plant injury at 250 g/ha ([4]; 250 g ai/ha, preemergence, scale 0 (no effect) to 100 (complete control), read-out: Wheat plant response rating): 35%
plant injury at 62 g/ha ([4]; Preemergence, 62 g ai/ha, scale 0 to 100, 0 no effect, 100 complete control, read-out: Plant response rating, Wheat): 0%
Pigweed plant response rating [5, 17]: 75
pest or weed control at 125 g/ha ([5]; Amaranthus retroflexus, post-emergence, 125 g ai/ha, postemergence, visual rating, scale 0 to 100 (0 no effect, 100 complete control), read-out: Plant response rating, Pigweed): 90%
pest or weed control at 250 g/ha ([5]; Amaranthus retroflexus, post-emergence, 250 g ai/ha, postemergence, read-out: Plant response rating (0 to 100), Pigweed): 95%
pest or weed control at 62 g/ha ([5]; Amaranthus retroflexus, post-emergence, Postemergence, 62 g ai/ha, scale 0 to 100 (0 no effect, 100 complete control), 13 to 15 days, read-out: Plant response rating, Pigweed): 75%
Foxtail, Giant plant response rating (0 to 100 scale) ([6]; 125 g ai/ha): 100
pest or weed control at 500 g/ha ([6]; Setaria faberi, pre-emergence, 240 h, 500 g ai/ha, 0 to 100 scale where 0 is no effect and 100 is complete control, read-out: Foxtail, Giant plant response rating): 100%
Ryegrass, Italian plant response rating [7, 17]: 0
pest or weed control at 125 g/ha ([7]; Lolium multiflorum, post-emergence, 125 g ai/ha, postemergence, visual rating, scale 0 to 100 (0 no effect, 100 complete control), read-out: Plant response rating, Ryegrass, Italian): 0%
pest or weed control at 250 g/ha ([7]; Lolium multiflorum, post-emergence, 250 g ai/ha, postemergence, read-out: Plant response rating (0 to 100), Ryegrass, Italian): 15%
pest or weed control at 62 g/ha ([7]; Lolium multiflorum, post-emergence, Postemergence, 62 g ai/ha, scale 0 to 100 (0 no effect, 100 complete control), 13 to 15 days, read-out: Plant response rating, Ryegrass, Italian): 0%
Morningglory plant response rating (0 to 100 scale) ([8]; 125 g ai/ha): 60
pest or weed control at 500 g/ha ([8]; Ipomoea, pre-emergence, 240 h, 500 g ai/ha, 0 to 100 scale where 0 is no effect and 100 is complete control, read-out: Morningglory plant response rating): 100%
pest or weed control at 125 g/ha ([9]; 125 g ai/ha, preemergence, scale 0 (no effect) to 100 (complete control), read-out: Lambsquarters plant response rating): 100%
pest or weed control at 250 g/ha ([9]; 250 g ai/ha, preemergence, scale 0 (no effect) to 100 (complete control), read-out: Lambsquarters plant response rating): 100%
pest or weed control at 62 g/ha ([9]; Preemergence, 62 g ai/ha, scale 0 to 100, 0 no effect, 100 complete control, read-out: Plant response rating, Lambsquarters): 100%
pest or weed control at 250 g/ha [10]: 0%
Velvetleaf plant response rating ([11]; 125 g ai/ha): 100
pest or weed control at 500 g/ha ([11]; Abutilon theophrasti, post-emergence, 240 h, 500 g ai/ha, read-out: Plant response rating, Velvetleaf): 100%
Velvetleaf plant response rating (0 to 100 scale) ([12]; 125 g ai/ha): 80
pest or weed control at 500 g/ha ([12]; Abutilon theophrasti, pre-emergence, 240 h, 500 g ai/ha, 0 to 100 scale where 0 is no effect and 100 is complete control, read-out: Velvetleaf plant response rating): 100%
Corn plant response rating (0 to 100 scale) ([13]; 125 g ai/ha): 30
plant injury at 500 g/ha ([13]; Zea mays, pre-emergence, 240 h, 500 g ai/ha, 0 to 100 scale where 0 is no effect and 100 is complete control, read-out: Corn plant response rating): 50%
pest or weed control at 31 g/ha ([14]; 31 g ai/ha, postemergence, visual rating, scale 0 to 100 (0 no effect, 100 complete control), 13 to 15 days, read-out: Kochia plant response rating): 90%
pest or weed control at 125 g/ha ([14]; 125 g ai/ha, postemergence, visual rating, scale 0 to 100 (0 no effect, 100 complete control), read-out: Plant response rating, Kochia): 90%
pest or weed control at 250 g/ha ([14]; 250 g ai/ha, postemergence, read-out: Plant response rating (0 to 100), Kochia): 95%
pest or weed control at 62 g/ha ([14]; Postemergence, 62 g ai/ha, scale 0 to 100 (0 no effect, 100 complete control), 13 to 15 days, read-out: Plant response rating, Kochia): 90%
Crabgrass, Large plant response rating ([15]; 125 g ai/ha): 90
pest or weed control at 500 g/ha ([15]; Digitaria sanguinalis, post-emergence, 240 h, 500 g ai/ha, read-out: Plant response rating, Crabgrass, Large): 100%
Morningglory plant response rating [16, 17]: 50
pest or weed control at 125 g/ha ([16]; Ipomoea, post-emergence, 125 g ai/ha, postemergence, visual rating, scale 0 to 100 (0 no effect, 100 complete control), read-out: Plant response rating, Morningglory): 80%
pest or weed control at 250 g/ha ([16]; Ipomoea, post-emergence, 250 g ai/ha, postemergence, read-out: Plant response rating (0 to 100), Morningglory): 95%
pest or weed control at 62 g/ha ([16]; Ipomoea, post-emergence, Postemergence, 62 g ai/ha, scale 0 to 100 (0 no effect, 100 complete control), 13 to 15 days, read-out: Plant response rating, Morningglory): 80%
